{
  "source": "paper PMC7238232",
  "about": "“Acamprosate Is a Substrate of the Human Organic Anion Transporter (OAT) 1 without OAT3 Inhibitory Properties: Implications for Renal Acamprosate Secretion and Drug–Drug Interactions” (Pharmaceutics, 2020)",
  "key": {"TAUT": {"test_system": "TAUT", "details": "Caco-2 cells, preliminary data; cited from earlier work"}, "OATP2B1": {"test_system": "OATP2B1", "details": "Caco-2 cells, preliminary data; cited from earlier work"}, "[1]": {"assay": "Physicochemical properties", "details": "assay pH 7.4"}, "OAT1": {"biological_target": "T1, OAT1 (Homo sapiens, UniProt Q4U2R8)", "T1 sequence (Q4U2R8 1-563)": "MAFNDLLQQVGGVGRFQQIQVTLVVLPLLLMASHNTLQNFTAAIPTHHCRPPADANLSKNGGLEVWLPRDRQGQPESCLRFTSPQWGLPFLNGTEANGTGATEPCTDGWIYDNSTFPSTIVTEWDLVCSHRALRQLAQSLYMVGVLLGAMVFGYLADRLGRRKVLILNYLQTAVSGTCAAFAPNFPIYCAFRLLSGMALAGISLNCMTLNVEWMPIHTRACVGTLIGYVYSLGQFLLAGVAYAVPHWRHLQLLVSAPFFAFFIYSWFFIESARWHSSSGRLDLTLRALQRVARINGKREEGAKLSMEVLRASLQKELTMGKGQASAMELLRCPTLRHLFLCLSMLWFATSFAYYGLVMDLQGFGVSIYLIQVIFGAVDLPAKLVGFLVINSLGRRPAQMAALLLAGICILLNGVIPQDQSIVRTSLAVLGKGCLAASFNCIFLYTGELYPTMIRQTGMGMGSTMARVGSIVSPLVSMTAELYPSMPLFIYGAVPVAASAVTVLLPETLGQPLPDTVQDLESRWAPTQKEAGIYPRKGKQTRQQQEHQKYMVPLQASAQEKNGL", "assay": "Acamprosate intracellular uptake and inhibition of uptake in HEK293-Flp-In OAT1 cells (LC/MS-MS)", "assay_type": "cell-based", "design": "expressed in transfected cells; host or cells: HEK293-Flp-In", "description": "The obtained intracellular amounts (pmol) were normalized to the assay time (min) and cell surface area (cm^2) or protein amount (mg protein) to obtain a term hereafter referred to as uptake rate. The uptake rate of acamprosate as a function of concentration was fitted to a Michaelis–Menten type equation which includes a saturable and a non-saturable uptake component, (1) V=Vmax · [S]/Km +[S]+P · [S] where V is the substrate uptake rate; Vmax is the maximal uptake rate; P is a constant related to non-saturable apparent uptake, i.e., factors such as passive diffusion, unspecific binding and residual compound present after washing steps, and [S] is the substrate concentration (µM). […] Assuming competitive interaction, equilibrium dissociation constants, Ki, were calculated from the IC50 value for each substrate/inhibitor pair, at substrate Km, using the Cheng–Prusoff equation [24]."}, "OAT3": {"biological_target": "T2, OAT3 (Homo sapiens, UniProt Q8TCC7)", "T2 sequence (Q8TCC7 1-542)": "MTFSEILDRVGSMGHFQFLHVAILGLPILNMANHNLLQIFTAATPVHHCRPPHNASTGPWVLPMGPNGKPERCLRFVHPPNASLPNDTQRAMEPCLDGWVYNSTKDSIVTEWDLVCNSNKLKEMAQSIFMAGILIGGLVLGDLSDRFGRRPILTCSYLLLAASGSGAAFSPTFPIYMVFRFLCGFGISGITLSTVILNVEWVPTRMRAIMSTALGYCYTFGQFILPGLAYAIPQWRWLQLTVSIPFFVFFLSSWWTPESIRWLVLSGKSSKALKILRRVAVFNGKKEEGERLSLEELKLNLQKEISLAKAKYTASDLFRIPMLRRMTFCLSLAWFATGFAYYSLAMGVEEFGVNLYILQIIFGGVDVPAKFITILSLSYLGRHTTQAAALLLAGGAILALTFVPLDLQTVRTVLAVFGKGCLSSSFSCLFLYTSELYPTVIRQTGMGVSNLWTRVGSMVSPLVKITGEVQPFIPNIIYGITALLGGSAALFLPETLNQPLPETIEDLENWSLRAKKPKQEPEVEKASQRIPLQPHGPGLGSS", "assay": "Acamprosate intracellular uptake in HEK293-Flp-In OAT3 cells (LC/MS-MS)", "assay_type": "cell-based", "details": "200 µM acamprosate; 10 min; Lab. 1", "experimental": "The experiments were done on cells cultured in 24-well plates in Lab. 1. For the time-dependent uptake, the experiment was initiated by replacing the incubation buffer with 200 µL prewarmed 200 µM solution of acamprosate in uptake buffer. The plates were incubated in an orbital plate shaker at 37 °C and 100 rpm for 5, 15, 30, 45, 60, or 90 min and experiments were stopped by washing with 3 × 500 µL ice-cold buffer. […] The plates were incubated in an orbital plate shaker (Incubating microplate shaker from VWR International AB, Stockholm, Sweden) at 37 °C and 100 rpm for 10 min (time point at which substrate uptake was within the linear range) and experiments were stopped by washing with 3 × 500 µL∙well^−1 ice-cold buffer. The cells were then lysed with 200 µL 50 nM warfarin in 60:40 acetonitrile (ACN):water (IS solution) and mixed thoroughly. The samples were moved to 96-well LC/MS-MS plates. The wells from the uptake experiment were rinsed again with 200 µL IS solution and the resulting volumes were added to the corresponding well on the same 96-well plate. […] The plates were covered with aluminum seals and centrifuged at 3500 rpm and 5 °C for 20 min and the amount of acamprosate in the supernatant was quantified by LC/MS-MS.\nAcamprosate was quantified in Lab. […] Quantification was done by multiple reaction monitoring of parent and daughter ions. […]"}, "HEK293-Flp-In OAT1 cells": {"test_system": "HEK293-Flp-In OAT1 cells", "assay": "CellTiter-Glo cell viability assay, OAT1 transfected cells", "details": "up to 3300 µM acamprosate; 3 h"}, "[2]": {"details": "200 µM acamprosate, 10 min, Lab. 1"}},
  "data": [
    {"smiles": "CC(=O)NCCCS(=O)(=O)O", "note": "[acamprosate, acetylhomotaurinate]", "values": [
      {"measurement": "inhibition of substrate transport via TAUT", "setting": "TAUT", "value": "did not inhibit"},
      {"measurement": "inhibition of substrate transport via OATP2B1", "setting": "OATP2B1", "value": "did not inhibit"},
      {"measurement": "ionized at the assay pH", "setting": "[1]", "value": "> 99", "unit": "%"},
      {"measurement": "acamprosate uptake in OAT1 expressing cells compared to mock and OAT3 expressing cells", "setting": "OAT1; [2]", "value": "statistically significantly higher"},
      {"measurement": "acamprosate uptake rate in OAT1 cells relative to mock-transfected cells", "setting": "OAT1; [2]", "value": "approximately 20 fold"},
      {"measurement": "P, non-saturable apparent uptake constant", "setting": "OAT1; HEK293-Flp-In OAT1 cells, Lab. 1", "value": "0.35 ± 0.04", "unit": "µL∙mg protein^−1∙min^−1"},
      {"measurement": "uptake by OAT1 as compared to OAT3", "setting": "OAT1; criterion of relatively OAT1-specific substrate", "value": "at least 5 ×"},
      {"measurement": "acamprosate uptake in OAT3 expressing cells compared to mock cells", "setting": "OAT3", "value": "similar"},
      {"measurement": "decrease in cell viability", "setting": "HEK293-Flp-In OAT1 cells", "value": "≤ 10", "unit": "%"}
    ]}
  ]
}
